Data set [1] is described as follows: Encapsulation efficiency of RNA (QUANT-IT RIBOGREEN RNA assay). The format is physicochemical. The source says:
The efficiency of encapsulation of a therapeutic and/or prophylactic agent describes the amount of therapeutic and/or prophylactic agent that is encapsulated or otherwise associated with a nanoparticle composition after preparation, relative to the initial amount provided. The encapsulation efficiency is desirably high (e.g., close to 100%). The encapsulation efficiency may be measured, for example, by comparing the amount of therapeutic and/or prophylactic agent in a solution containing the nanoparticle composition before and after breaking up the nanoparticle composition with one or more organic solvents or detergents. Fluorescence may be used to measure the amount of free therapeutic and/or prophylactic agent (e.g., RNA) in a solution. […]
For nanoparticle compositions including an RNA, a QUANT-IT™ RIBOGREEN® RNA assay (Invitrogen Corporation Carlsbad, CA) can be used to evaluate the encapsulation of an RNA by the nanoparticle composition. […] The fluorescence intensity can be measured using a fluorescence plate reader (Wallac Victor 1420 Multilablel Counter; Perkin Elmer, Waltham, MA) at an excitation wavelength of, for example, about 480 nm and an emission wavelength of, for example, about 520 nm. […]

A short description of data set [2]: Particle size and polydispersity index (Zetasizer Nano ZS). To be noted: Table 1; for PDI: DOPE 40:20:38.5:1.5, Luc mRNA. Type of data set: physicochemical. Put shortly: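 Particle size and polydispersity index were measured by dynamic light scattering on a Zetasizer Nano ZS in 1×PBS. Zeta potential was measured in 15 mM PBS.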
Data set [3] in a line: Lipid levels (clearance) in liver and spleen 48 hours after administration. The format is in vivo, rats. As to conditions: rat liver, 48 h. As for the experimental part:
Formulations were administered intravenously to rats (n=3 or 6) at a dosage of 0.2 mg/kg or 0.5 mg/kg (mpk) and hEPO levels measured at 3, 6, and 24 hour time points. After the 48 hour time point, livers and spleens were harvested and frozen.
The amount of lipid in the liver and spleen 48 hours after administration of a nanoparticle composition was also measured. […] In contrast, approximately 60% of doses including MC3 or Compound 22 remained in the liver after 48 hours. Less than 3% of the dose remained in the spleen for each composition tested.

The test system of data set [4] is luciferase (Luc) mRNA expression. The data set can be described thus: Luc expression (AUC) in CD-1 mice relative to MC3. The format is in vivo. Put shortly:
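CD-1 mice dosed at 0.5 mpk with nanoparticle compositions carrying luciferase mRNA; total light flux acquired by whole-body luminescent imaging 6 h after administration. Expression referenced to MC3-containing composition.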

Data set [5] deals with LDLr mRNA / Luc expression. The data set can be described thus: Expression (AUC) in LDLr−/− mice relative to KL22. Type of data set: in vivo. To be noted: Table 7b.
The test system of data set [6] is GFP mRNA expression in liver cells. The data set is described as follows: Mouse liver immunohistochemistry (IHC) of GFP after GFP mRNA LNP. The format is in vivo, CD-1 mouse; LDLR knockout mouse. To be noted: i.v. 0.5 mpk; MC3: CD-1 mouse, 6h; Compound 4: LDLR knockout mouse, 8h. As for the experimental part:
FIG. 11 is a pair of images comparing the results of a mouse liver immunohistochemistry (IHC) using mRNA expressing green fluorescent protein (GFP) after administration of nanoparticle compositions containing Compound 4 and MC3.
FIG. 16 is a graph showing GFP levels in the livers of LDLR knockout mice at 30 min to 24 h after intravenous administration of an eGFP RNA in a lipid composition containing Compound 4. The liver GFP levels were determined via IHC. The square markers represent the number of GFP positive cells following administration of a dose of 0.1 mpk of the composition. The circular markers represent the number of GFP positive cells following administration of a dose of 0.5 mpk of the composition.

The test system of data set [7] is hEPO mRNA expression. The data set can be described thus: hEPO levels in non-human primates. Type of data set: in vivo. As for the experimental part: FIG. 10 is a graph showing hEPO levels in non-human primates up to −50 h after administration of a nanoparticle composition containing Compound 4, compared to a composition containing MC3.
The tolerability and efficacy of nanoparticle compositions to non-human primates is evaluated in Cynomolgus monkeys. Monkeys are administered an optimized nanoparticle composition including an mRNA encoding hEPO once weekly for four weeks. The levels of hEPO protein, mRNA, and cytokine profiles are measured using ELISA-based techniques before and 2, 6, 12, 24, 48, 72, and 120 hours after each administration.

A further data set has as its system rats. The data set is described as follows: Tolerability / toxicity in rats dosed i.v. with hEPO mRNA LNP. As to conditions: 2 mg/kg dose. The format is in vivo.
A further data set concerns LDL-c. The data set can be described thus: LDL (LDL-c) levels in LDLr−/− mice after mRNA encoding the LDL receptor. Type of data set: in vivo, LDLR knockout mice. As to conditions: Compound 11 at 0.5 and 1 mpk.
In data set [8] the test system is hEPO mRNA expression. The data set can be described thus: Expression of hEPO after intravenous administration to rats. The format is in vivo. To be noted: rats, 2 mpk, i.v. (Graph A); in words. As for the experimental part: PBS (phosphate buffered saline) is used as control.
Formulations were prepared according to Table 5 and included mRNA encoding hEPO.
[…] After the 48 hour time point, livers and spleens were harvested and frozen.

Regarding `CCCCCCCCCCCCN(CCCCCCCCCCCC)CCN1CCN(C(=O)CN(CCCCCCCCCCCC)CCN(CCCCCCCCCCCC)CCCCCCCCCCCC)CC1` [Compound 2, 2-((2-(Didodecylamino)ethyl)(dodecyl)amino)-1-(4-(2-(didodecylamino)ethyl)piperazin-1-yl)ethan-1-one], in data set [1] (Table 1, marked *: lipid:DSPC:Chol:PEG-DMG 50:10:38.5:1.5), the “EE (%)” value was 96%.

`CCCCC/C=C\CCCCCN(CCCCC/C=C\CCCCC)CCN1CCN(CCN(CCCCCCCCCCCC)CCN(CCCCCCCCCCCC)CCCCCCCCCCCC)CC1` [Compound 25, N^1-(2-(4-(2-(Di((Z)-dodec-6-en-1-yl)amino)ethyl)piperazin-1-yl)ethyl)-N^1,N^2,N^2-tridodecylethane-1,2-diamine]: in data set [1] (Table 1, DOPE 40:20:38.5:1.5, Luc mRNA), the “EE (%)” value was determined as 97.0%. Besides, in data set [2] (lipid:DOPE:Chol:PEG-DMG 40:20:38.5:1.5, Luc mRNA, MC3 standard formulation), the “Size (nm)” value is recorded as 90.0 nm.

`CCCCCCCCCN(CCCCCCCCC)CCN(CCCCCCCCC)CC(=O)N1CCN(C(=O)CN(CCCCCCCCC)CCCCCCCCC)CC1` [Compound 4, 2-(Dinonylamino)-1-(4-(N-(2-(dinonylamino)ethyl)-N-nonylglycyl)piperazin-1-yl)ethan-1-one] had a PDI in [2] of 0.120. In addition, the “% dose remaining Rat liver (48 h)” value in data set [3] is reported as 37.82%. Besides, the “Lipid/MC3 AUC CD-1 mice 0.5 mpk” value in data set [4] (Table 7b, Luc expression, CD-1 mice, 0.5 mpk) is on record as 3.70. For the same molecule, the “Lipid/KL22 AUC LDLr−/− mice 0.5 mpk, LDLr” value in data set [5] is reported as 2.03. Besides, the “GFP protein expression in liver cell types (IHC, FIG. 11)” value in data set [6] is “less protein expression in Kupffer cells”. Also, the “hEPO expression compared to MC3 (FIG. 10)” value in the data set with hEPO mRNA expression [7] is given as 3 fold.

Take `CCCCCCCCCCCCN(CCCCCCCCCCCC)CCN(CCCCCCCCCCCC)CC(=O)N1CCN(C(=O)CN(CCCCCCCCCCCC)CCCCCCCCCCCC)CC1` [Compound 11, 2-(Didodecylamino)-1-(4-(N-(2-(didodecylamino)ethyl)-N-dodecylglycyl)piperazin-1-yl)ethan-1-one]: the “Tolerability / toxicity in rats (FIG. 8)” value in the data set with rats is “improved tolerability as compared to KL22”. The “LDL-c levels in LDLR knockout mice (FIG. 9B)” value with LDL-c is on record as “found to drop”. In data set [2], this molecule showed a PDI of 0.099. For the same molecule, in the data set with hEPO mRNA expression [8], the “hEPO expression in rats (FIG. 8)” value is recorded as “comparable to MC3”. In addition, the “Lipid/MC3 Luc CD-1 (mice)” value in data set [4] (Luc expression relative to MC3, CD-1 mice) is 1.03.

These data come from US12396961B2, “Compounds and compositions for intracellular delivery of agents” (ModernaTX, Inc., priority 2015, dated 2025).
